Source: patent US9844546B2, “Antibody against human HIF hydroxylase” (OXFORD UNIVERSITY INNOVATION LIMITED, priority 2001, dated 2017)
Read-outs that look alike come from different tables or passages of the source.

Assays:
[1] = test system: HIF-α prolyl-hydroxylase (HIF-PH) of cell extract; test: Modifying activity (HIF-PH) of cell extract on HIF substrate (Gal/HIF-1α549-582/VP16 or 19:WT), pVHL capture assay; format: biochemical, mammalian
Protocol: The unlabelled HIF-1α substrate was immunopurified on beads, washed, and aliquots incubated under different test conditions in buffer or cell extract. After further washing, the beads were assayed for ability to interact with 35-S labelled pVHL IVTT (21) which was then visualised by fluorography.
The capture of labelled pVHL by different HIF substrates was monitored after exposure to various test conditions.
We went on to test a series of 2-oxoglutarate analogues which act as competitive inhibitors of this class of enzyme (29) for ability to inhibit HIF-PH as assessed by the ability of cell extracts to modify either HIF polypeptide (19:WT) or a HIF fusion protein (Gal/HIF-1α549-582/VP16) so as to promote pVHL capture. […] In one such experiment the effect of N-oxalylglycine on pVHL capture by a biotinylated HIF polypeptides as substrate was monitored. The WT:19 and 19:Pro564Hyp polypeptides described above were used as substrates. […] The effect of dimethyl-oxalyglycine on HIF-1α expression was also studied. HIF-1α immunoblot analysis of extracts of Hep3B and U2OS cells exposed to dimethyl-oxalylgylcine (0, 0.1 or 1.0 mM) for 6 hours was carried out. […]

clavaminate synthase = test: Clavaminate synthase inhibition under standard assay conditions; format: biochemical, Streptomyces clavligerus
Description: These are commonly methyl or ethyl esters although others are possible.

[2] = test system: HIF hydroxylase (HPH activity); test: HIF hydroxylase (HPH) inhibition, statements of the description; format: biochemical
[3] = target: T1, HIF-1/VHL-1 interaction promoting activity of worm extract (Caenorhabditis elegans, UniProt G5EBV0); test: Worm extract modification of C. elegans HIF-1, HA.VHL-1 interaction assay; format: biochemical; conditions: antagonized by 5 mM 2-OG
T1 construct: from tissue; host or cells: whole-worm homogenate in hypotonic extraction buffer
T1 sequence (G5EBV0 whole entry): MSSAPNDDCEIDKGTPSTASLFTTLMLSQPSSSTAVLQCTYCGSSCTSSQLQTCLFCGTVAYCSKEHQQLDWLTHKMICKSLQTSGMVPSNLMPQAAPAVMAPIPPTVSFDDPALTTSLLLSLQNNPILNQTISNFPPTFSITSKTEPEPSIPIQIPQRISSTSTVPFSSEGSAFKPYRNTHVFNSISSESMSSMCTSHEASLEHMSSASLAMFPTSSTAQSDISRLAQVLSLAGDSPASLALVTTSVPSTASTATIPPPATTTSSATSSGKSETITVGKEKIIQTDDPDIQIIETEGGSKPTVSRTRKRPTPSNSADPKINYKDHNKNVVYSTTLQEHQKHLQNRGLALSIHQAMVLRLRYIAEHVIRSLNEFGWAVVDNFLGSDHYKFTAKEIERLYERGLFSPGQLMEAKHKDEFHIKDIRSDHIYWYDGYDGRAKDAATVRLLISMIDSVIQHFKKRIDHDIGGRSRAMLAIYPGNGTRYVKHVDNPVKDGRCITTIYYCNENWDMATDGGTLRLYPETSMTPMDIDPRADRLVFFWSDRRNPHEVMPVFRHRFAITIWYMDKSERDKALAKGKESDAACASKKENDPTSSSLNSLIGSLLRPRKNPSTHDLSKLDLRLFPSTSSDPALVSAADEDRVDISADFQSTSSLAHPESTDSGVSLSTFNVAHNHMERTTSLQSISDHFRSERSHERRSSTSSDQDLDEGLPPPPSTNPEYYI
Protocol: Assays for interaction between recombinant VHL and HIF polypeptides conformed to the following experimental design. Recombinant VHL and HIF polypeptides were produced separately in vitro. The HIF polypeptide was then pre-incubated with extract or a recombinant enzyme as described below, then mixed with VHL and incubated in EBC buffer (50 mM Tris pH 7.5, 150 mM NaCl, 0.5% v/v Igepal, 0.5 mM EDTA) at 4° C. for 1 hour, before immunoprecipitation with anti HA antibodies (for HA tagged VHL) or anti Gal antibodies (for Gal4HIF fusions) and analysis by PAGE (Jaakkola et al. (2001) supra).
Preincubation of C. elegans HIF-1 with worm extract or recombinant EGL-9 was for 30 min at 25° C. Preincubation of mammalian HIF-α polypeptides with cell extract or recombinant enzymes was at 37° C. for 10-30 min unless otherwise stated. For assays of recombinant enzymes, 2-oxoglutarate (2 mM), iron (100 μM), and ascorbate (2 mM) were added to the reaction buffer unless otherwise indicated. Reactions performed in hypoxia were in the stated atmospheric oxygen concentration (balance nitrogen) obtained using a controlled environment Invivo2 400 hypoxia work-station (Ruskinn Technologies) and buffers pre-equilibrated with the appropriate atmosphere. Reactions (50 μl) were performed in open Eppendorf tubes with mixing and stopped by the addition of 20 volumes desferrioxamine (100 μM}. […]

VHL E3 ubiquitin ligase = target: T2, VHL E3 ubiquitin ligase (Homo sapiens, UniProt P40337); test: VHL E3 interaction assay with 35S-labelled tat-ODD IVTT products; format: binding; conditions: after modification by cell extracts
T2 construct: expressed in transfected cells; host or cells: 786-0 cells stably transfected with pcDNA3 VHL.HA (whole extract, anti-HA immunoprecipitation)
T2 sequence (P40337 whole entry): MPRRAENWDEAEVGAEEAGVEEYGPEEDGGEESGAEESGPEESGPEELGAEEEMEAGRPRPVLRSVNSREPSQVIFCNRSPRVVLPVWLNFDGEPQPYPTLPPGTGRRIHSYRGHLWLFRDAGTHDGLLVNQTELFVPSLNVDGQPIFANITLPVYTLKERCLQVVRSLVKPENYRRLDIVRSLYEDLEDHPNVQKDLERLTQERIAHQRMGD
T2 sequence (Q15370 whole entry partner): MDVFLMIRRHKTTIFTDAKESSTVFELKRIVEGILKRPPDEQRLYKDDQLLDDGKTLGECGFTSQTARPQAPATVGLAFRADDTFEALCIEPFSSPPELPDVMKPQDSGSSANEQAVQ
T2 sequence (Q15369 whole entry partner): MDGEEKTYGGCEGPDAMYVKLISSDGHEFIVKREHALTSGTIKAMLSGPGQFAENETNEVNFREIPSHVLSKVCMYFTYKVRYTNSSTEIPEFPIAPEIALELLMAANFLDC
T2 sequence (Q13617 whole entry partner): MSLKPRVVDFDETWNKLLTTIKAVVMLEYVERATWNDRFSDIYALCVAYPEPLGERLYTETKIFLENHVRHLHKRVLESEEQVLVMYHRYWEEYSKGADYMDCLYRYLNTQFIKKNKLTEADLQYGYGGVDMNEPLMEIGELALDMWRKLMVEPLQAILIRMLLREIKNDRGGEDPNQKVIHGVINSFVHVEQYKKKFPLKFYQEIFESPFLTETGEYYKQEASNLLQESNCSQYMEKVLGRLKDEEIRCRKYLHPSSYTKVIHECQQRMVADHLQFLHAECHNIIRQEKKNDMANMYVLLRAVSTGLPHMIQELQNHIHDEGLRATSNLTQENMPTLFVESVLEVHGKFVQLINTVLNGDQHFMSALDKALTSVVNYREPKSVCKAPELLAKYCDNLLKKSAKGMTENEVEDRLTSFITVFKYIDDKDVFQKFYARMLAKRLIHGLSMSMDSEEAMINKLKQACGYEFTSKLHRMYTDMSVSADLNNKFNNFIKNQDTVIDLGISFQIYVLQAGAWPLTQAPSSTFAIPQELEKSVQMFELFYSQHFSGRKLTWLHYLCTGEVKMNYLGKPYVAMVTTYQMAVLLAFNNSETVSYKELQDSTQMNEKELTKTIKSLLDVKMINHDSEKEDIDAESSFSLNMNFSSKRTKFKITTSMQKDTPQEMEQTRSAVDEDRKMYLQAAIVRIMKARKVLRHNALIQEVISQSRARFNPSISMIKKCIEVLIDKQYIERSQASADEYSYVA
T2 sequence (P62877 whole entry partner): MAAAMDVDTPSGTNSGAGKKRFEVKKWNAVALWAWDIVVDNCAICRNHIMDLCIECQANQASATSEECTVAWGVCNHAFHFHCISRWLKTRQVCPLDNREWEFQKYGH
Description: Concordant with the ubiquitination assays discussed above NODD (HIF-1α 343-417) and CODD (HIF-1α 549-582) polypeptides, but not their corresponding proline mutants (HIF-1α 343-417/P402A and HIF-1α 549-582/P564G), bound to VHL E3 ubiquitin ligase after modification by cell extracts. The ^35S-methionine labelled recombinant polypeptides therefore interacted with VHL, supporting the results of the ubiquitination experiments discussed above. The interaction was enhanced by the presence of cell extracts which promote hydroxylation of the prolines at positions 402 and 564 ^19. In contrast, no binding occurred using peptides in which prolines were mutated.
For VHL E3 interaction assays ^35S-methionine labelled HIF-1a substrates were prepared by transcription/translation using TnT7 rabbit reticulocyte lysate (Promega). 100 μM DFO was added to the reaction to suppress prolyl hydroxylase activity of the reticulocyte lysate. Substrate modification was achieved by incubation of HIF-1α translate with RCC4 cell lysate in the presence of ferrous chloride (100 μM). Interaction with VHL E3 was analysed as described previously ^21.

U2OS cells = U2OS cells stably transfected with doxycycline-inducible NODD or CODD; format: cell-based, human; conditions: doxycycline 0.2-3.2 μg/ml, peaking after 48 hours
Protocol: To explore further the therapeutic potential of NODD and CODD polypeptides to activate endogenous HIF we stably transfected U2OS cells with doxycycline-inducible NODD (doxNODD) and CODD constructs (doxCODD) encoding identical sequences to those used for transient transfections.
Cells stably transfected with NODD or CODD controlled by the tetracycline-inducible system were exposed to doxycycline. Cell extracts were prepared 0, 16, 24 and 48 hours after exposure to doxycycline. The extracts of doxNODD (HIF-1α aa343-417), doxCODD (HIF-1α aa549-82) and control cells (empty vector) were then immunoblotted for HIF-1α protein. Increased HIF-1α signals were detected from 16-48 hours following doxycycline administration in doxNODD and doxCODD cells but not in empty vector cells. Levels of HIF-1α induced by hypoxia were also measured for comparison. The endogenous HIF-1α induction was doxycycline dose (0.2-3.2 μg/ml) and time dependent, peaking after 48 hours. Maximal levels were about 20% and about 70% of HIF-1α levels seen following hypoxic or DFO treatment of the doxNODD and doxCODD cells respectively. […]
Stably transfected cell lines were generated by transfecting U2OS cells bearing the reverse tetracycline responsive transactivator ^34 and the tetKRAB silencer construct ^36 with pUHD/HIF plasmids. Following selection in G418 (1 mg/ml) individual colonies were picked. DoxNODD (F21) and doxCODD (myc19) clones expressed pUHD/HIF-1aa343-417/3NLS/c-myc and pUHD/HIF-1α aa549-82/3NLS/c-myc respectively. […]
Cell extracts were prepared in buffer (8M urea, 10% glycerol, 1% SDS, 5 mM DTT, 10 mM Tris/pH 6.8), separated by SDS-PAGE and transferred to Immobilon-P membrane (Millipore). Primary antibodies against HIF-1α, c-myc tag and HA tag were from Transduction Laboratories, Innogenex and Roche Molecular respectively. […]

U2OS and Hep3B cells = test: HRE-dependent luciferase reporter assay after transient transfection of NODD/CODD plasmids; format: cell-based, human; conditions: normoxic conditions, 24 hours
Description: Since normoxic HIFα degradation is saturable ^17 and depends on sub-regions within the ODD we tested whether peptides encoding the HIF-1α amino terminal ODD (NODD) and carboxy terminal ODD (CODD) ^21 could affect HIF activity as measured by hypoxia response element (HRE)-dependent reporter gene expression. Briefly, Degradation is prevented by the NODD and CODD polypeptides competing for prolyl hydroxylation and/or VHL binding, thereby blocking subsequent ubiquitination. We constructed plasmids encoding NODD (HIF-1-α aa 343-417) or CODD (HIF-1-α aa 549-582) linked to nuclear localisation sequences and a c-myc epitope tag. These plasmids were transiently co-transfected into U2OS and Hep3B cells with an HRE-dependent luciferase reporter plasmid. […]
For reporter gene assays DNA fragments encoding HIF-1α amino acids 343-417, 380-417, 390-417, 390-410, 343-400, 530-95, 530-82, 549-82, 556-74 and 530-62 were generated by PCR using oligonucleotides containing 5′ SacII or 3′ AscI sites and inserted into a pCMV/myc/nuc (Invitrogen) derivative bearing these sites in frame with the NLS and epitope tag. […] To generate tet-operator dependent plasmids the open reading frames from the aa343-417 and aa549-82 constructs were subcloned into pUHD 10 ^34. […]

Molecule: O=C(O)CNC(=O)CCS [N-(Mercaptopropionyl)glycine]
- pVHL binding after treatment with cell extract in the presence of inhibitor ([1]; 1 mM): strong binding of pVHL
- pVHL binding after treatment with cell extract in the presence of inhibitor ([1]; 5 mM): reduced the amount of pVHL binding
- inhibition of clavaminate synthase (clavaminate synthase): not an inhibitor
- inhibition of HIF hydroxylase / HPH [2]: inhibitors of HPH

Molecule: C[C@H](NC(=O)C(=O)O)C(=O)O [N-oxalyl-2S-alanine]
- inhibitory activity on HIF-1α modification, comparison of enantiomers ([1]; 0-2000 μM, RCC4 cell extract): higher inhibitory activity
- inhibition of worm extract activity promoting HIF-1/HA.VHL-1 interaction [3]: strongly inhibited activity
- inhibition of HIF hydroxylase / HPH [2]: act as inhibitors
- inhibition of HIF hydroxylase / HPH ([2]; listed as (S) oxaloalanine): preferred inhibitor

B1: NODD: HIF-1α amino terminal ODD polypeptide (aa 343-417) with nuclear localisation sequences and c-myc tag, plasmid expressed (protein, UniProt Q16665 343-417, looked up, fragment)
chain: SGIIQHDLIFSLQQTECVLKPVESSDMKMTQLFTKVESEDTSSLFDKLKKEPDALTLLAPAAGDTIISLDFGSND
modifications: NLS and c-myc tag
- binding to VHL E3 ubiquitin ligase (VHL E3 ubiquitin ligase): bound
- Maximal HIF-1α level relative to hypoxic or DFO treatment (U2OS cells): about 20%
- HRE-dependent relative luciferase activity (U2OS and Hep3B cells): increased relative luciferase activity
